Measurements: patent EP0007672A1, “Isocyanoalkenes, process and useful intermediates for their preparation, pharmaceutical and fungicidal preparations containing those isocyanoalkenes and the use of the fungicidal preparations in agriculture” (GIST-BROCADES N.V., priority 1978, dated 1980)
≈ marks a conversion by molar mass, not a printed value. Read-outs that look alike come from different tables or passages of the source. Each block holds one compound with its values, some of them ahead of it.

What was measured:
Assay in all cases: MIC (Minimum Inhibitory Concentration)
Type in all cases: cell-based
Pasteurella multocida = conditions: read-out: MIC values
Description: (§1) In addition they may be used for combatting plant diseases, in particular as fungicides. A list of MIC (Minimum Inhibitory Concentration) values for a number of microorganisms is listed herebelow. The figures in the column headings refer to the compounds prepared according to the experimental examples in comparison with the spectrum of 1-[2-(2,4-dichlorophenyl)-2-{(2,4-dichlorophenyl)-methoxy} -ethyl7-1H-imidazole (better known under the name of miconazole, c.f. Merck Index 9th Ed. page 6047) or natamycin (pimaricin, c.f. Merck Index 9th Ed. page 7233).

[1] = test system: Streptococcus haemolyticus; conditions: read-out: MIC values
Description: as §1

Trichophyton equinum = test system: Trichophyton equinum
Description: as §1

Candida albicans = test system: Candida albicans
Description: as §1

Trichophyton rubrum = test system: Trichophyton rubrum
Description: as §1

Trichophyton quickeaneum = conditions: read-out: MIC values
Description: as §1

Trichophyton verrucosum = test system: Trichophyton verrucosum
Description: as §1

Trichophyton violoceum = conditions: read-out: MIC values
Description: as §1

[2] = test system: Trichophyton mentagrophytus
Description: as §1

[3] = test system: Trichophyton schoenleinii; conditions: read-out: MIC values
Description: as §1

Trichophyton tonsurans = conditions: read-out: MIC values
Description: as §1

[4] = read-out: MIC values, Trichophyton equinum 182-76
[5] = read-out: MIC values, Trichophyton equinum 856-71
[6] = read-out: MIC values, Candida albicans A 7
[7] = read-out: MIC values, Candida albicans A 3140
[8] = read-out: MIC values, Candida albicans A 3141
[9] = read-out: MIC values, Candida albicans A 3142
[10] = read-out: MIC values, Candida albicans A 3143
[11] = read-out: MIC values, Candida albicans A 3144
[12] = read-out: MIC values, Candida albicans A 3145
[13] = read-out: MIC values, Candida albicans A 3165
[14] = read-out: MIC values, Candida albicans A 3166
[15] = read-out: MIC values, Candida albicans A 3167
[16] = read-out: MIC values, Candida albicans A 3168
[17] = read-out: MIC values, Candida albicans A 3169
[18] = read-out: MIC values, Candida albicans A 3171
[19] = read-out: MIC values, Candida albicans A 3184
[20] = read-out: MIC values, Candida albicans A 3190
[21] = read-out: MIC values, Candida albicans A 3191
[22] = read-out: MIC values, Candida albicans A 3192
[23] = read-out: MIC values, Candida albicans A 3194
[24] = read-out: MIC values, Candida albicans A 3196
[25] = read-out: MIC values, Trichophyton rubrum 218-65
[26] = read-out: MIC values, Trichophyton rubrum 494-62
[27] = read-out: MIC values, Trichophyton mentagrophytus 367-68
[28] = read-out: MIC values, Trichophyton mentagrophytus 421-67
[29] = read-out: MIC values, Trichophyton mentagrophytus A 3252
[30] = read-out: MIC values, Trichophyton mentagrophytus R 177
[31] = read-out: MIC values, Trichophyton mentagrophytus R 178
[32] = read-out: MIC values, Trichophyton mentagrophytus RRL 305

SMILES: [C-]#[N+]C(C1=CCCCCC1)S(=O)(=O)c1ccc(C)cc1 (stereo not shown) [Example 18b, a-(cyclohepten-1-yl)-a-(4-toluenesulphonyl)-methylisocyanide]
MIC (Pasteurella multocida; Pasteurella multocida): 50 µg/mL (≈ 173 µM)
MIC ([1]; Streptococcus): 25 µg/mL (≈ 86.4 µM)
MIC (Trichophyton equinum; [4]): > 100 µg/mL
MIC (Trichophyton equinum; read-out: MIC values, Trichophyton equinum 441-51): < 0.05 µg/mL
MIC (Trichophyton equinum; [5]): 100 µg/mL (≈ 346 µM)
MIC (Candida albicans; [6]): 6 µg/mL (≈ 20.7 µM)
MIC (Candida albicans; [7]): 6 µg/mL (≈ 20.7 µM)
MIC (Candida albicans; [8]): 12.5 µg/mL (≈ 43.2 µM)
MIC (Candida albicans; [9]): 12.5 µg/mL (≈ 43.2 µM)
MIC (Candida albicans; [10]): 12.5 µg/mL (≈ 43.2 µM)
MIC (Candida albicans; [11]): 12.5 µg/mL (≈ 43.2 µM)
MIC (Candida albicans; [12]): 6 µg/mL (≈ 20.7 µM)
MIC (Candida albicans; [13]): 12.5 µg/mL (≈ 43.2 µM)
MIC (Candida albicans; [14]): 12.5 µg/mL (≈ 43.2 µM)
MIC (Candida albicans; [15]): 12.5 µg/mL (≈ 43.2 µM)
MIC (Candida albicans; [16]): 6 µg/mL (≈ 20.7 µM)
MIC (Candida albicans; [17]): 12.5 µg/mL (≈ 43.2 µM)
MIC (Candida albicans; [18]): 12.5 µg/mL (≈ 43.2 µM)
MIC (Candida albicans; [19]): 12.5 µg/mL (≈ 43.2 µM)
MIC (Candida albicans; [20]): 12.5 µg/mL (≈ 43.2 µM)
MIC (Candida albicans; [21]): 12.5 µg/mL (≈ 43.2 µM)
MIC (Candida albicans; [22]): 12.5 µg/mL (≈ 43.2 µM)
MIC (Candida albicans; [23]): 25 µg/mL (≈ 86.4 µM)
MIC (Candida albicans; [24]): 12.5 µg/mL (≈ 43.2 µM)
MIC (Trichophyton rubrum; [25]): 100 µg/mL (≈ 346 µM)
MIC (Trichophyton rubrum; [26]): > 100 µg/mL
MIC (Trichophyton quickeaneum; Trichophyton): 25 µg/mL (≈ 86.4 µM)
MIC (Trichophyton verrucosum; read-out: MIC values, Trichophyton verrucosum 134-66): 3 µg/mL (≈ 10.4 µM)
MIC (Trichophyton verrucosum; read-out: MIC values, Trichophyton verrucosum A 2922): 12.5 µg/mL (≈ 43.2 µM)
MIC (Trichophyton violoceum; Trichophyton): 6 µg/mL (≈ 20.7 µM)
MIC [2, 27]: 25 µg/mL (≈ 86.4 µM)
MIC [2, 28]: > 100 µg/mL
MIC [2, 29]: > 100 µg/mL
MIC [2, 30]: > 100 µg/mL
MIC [2, 31]: > 100 µg/mL
MIC [2, 32]: > 100 µg/mL
MIC ([3]; Trichophyton schoenleinii): 6 µg/mL (≈ 20.7 µM)

MIC (Pasteurella multocida; Pasteurella multocida A 723): 50 µg/mL (≈ 201 µM)
MIC (Trichophyton equinum; Trichophyton equinum 182-76, read-out: MIC values): 50 µg/mL (≈ 201 µM)
MIC (Trichophyton equinum; Trichophyton equinum 856-71, read-out: MIC values): 50 µg/mL (≈ 201 µM)
MIC (Candida albicans; Candida albicans A 7, read-out: MIC values): 25 µg/mL (≈ 100 µM)
MIC (Candida albicans; Candida albicans A 3140, read-out: MIC values): 25 µg/mL (≈ 100 µM)
MIC (Candida albicans; Candida albicans A 3141, read-out: MIC values): 25 µg/mL (≈ 100 µM)
MIC (Candida albicans; Candida albicans A 3142, read-out: MIC values): 3 µg/mL (≈ 12 µM)
MIC (Candida albicans; Candida albicans A 3143, read-out: MIC values): 12.5 µg/mL (≈ 50.1 µM)
MIC (Candida albicans; Candida albicans A 3144, read-out: MIC values): 12.5 µg/mL (≈ 50.1 µM)
MIC (Candida albicans; Candida albicans A 3145, read-out: MIC values): 12.5 µg/mL (≈ 50.1 µM)
MIC (Candida albicans; Candida albicans A 3165, read-out: MIC values): 25 µg/mL (≈ 100 µM)
MIC (Candida albicans; Candida albicans A 3166, read-out: MIC values): 50 µg/mL (≈ 201 µM)
MIC (Candida albicans; Candida albicans A 3167, read-out: MIC values): 50 µg/mL (≈ 201 µM)
MIC (Candida albicans; Candida albicans A 3168, read-out: MIC values): 50 µg/mL (≈ 201 µM)
MIC (Candida albicans; Candida albicans A 3169, read-out: MIC values): 25 µg/mL (≈ 100 µM)
MIC (Candida albicans; Candida albicans A 3171, read-out: MIC values): 25 µg/mL (≈ 100 µM)
MIC (Candida albicans; Candida albicans A 3184, read-out: MIC values): 25 µg/mL (≈ 100 µM)
MIC (Candida albicans; Candida albicans A 3190, read-out: MIC values): 25 µg/mL (≈ 100 µM)
MIC (Candida albicans; Candida albicans A 3191, read-out: MIC values): 25 µg/mL (≈ 100 µM)
MIC (Candida albicans; Candida albicans A 3192, read-out: MIC values): 25 µg/mL (≈ 100 µM)
MIC (Candida albicans; Candida albicans A 3194, read-out: MIC values): 25 µg/mL (≈ 100 µM)
MIC (Candida albicans; Candida albicans A 3196, read-out: MIC values): 25 µg/mL (≈ 100 µM)
MIC (Trichophyton rubrum; Trichophyton rubrum 218-65, read-out: MIC values): 25 µg/mL (≈ 100 µM)
MIC (Trichophyton rubrum; Trichophyton rubrum 494-62, read-out: MIC values): 50 µg/mL (≈ 201 µM)
MIC (Trichophyton rubrum; Trichophyton rubrum A 810, read-out: MIC values): 25 µg/mL (≈ 100 µM)
MIC (Trichophyton quickeaneum; Trichophyton quickeaneum A 2040): 100 µg/mL (≈ 401 µM)
MIC (Trichophyton violoceum; Trichophyton violoceum 442-62): 25 µg/mL (≈ 100 µM)
MIC (Trichophyton tonsurans; Trichophyton tonsurans 561-50): 25 µg/mL (≈ 100 µM)
MIC ([2]; Trichophyton mentagrophytus 367-68, read-out: MIC values): 100 µg/mL (≈ 401 µM)
MIC ([2]; Trichophyton mentagrophytus 421-67, read-out: MIC values): 50 µg/mL (≈ 201 µM)
MIC ([2]; Trichophyton mentagrophytus A 3252, read-out: MIC values): 25 µg/mL (≈ 100 µM)
MIC ([2]; Trichophyton mentagrophytus R 177, read-out: MIC values): 25 µg/mL (≈ 100 µM)
MIC ([2]; Trichophyton mentagrophytus R 178, read-out: MIC values): 25 µg/mL (≈ 100 µM)
MIC ([2]; Trichophyton mentagrophytus RRL 305, read-out: MIC values): 50 µg/mL (≈ 201 µM)
MIC ([3]; Trichophyton schoenleinii 435-63): 25 µg/mL (≈ 100 µM)
SMILES: [C-]#[N+]C(=CCCC)S(=O)(=O)c1ccc(C)cc1 [Example 24, 1-isocyano-1-(4-toluenesulphonyl)-1-pentene]
MIC ([1]; Streptococcus haemolyticus A 1088): 100 µg/mL (≈ 401 µM)

SMILES: [C-]#[N+]C(=C1CCCCC1)S(=O)(=O)c1ccccc1 [Example 25, a-cyclohexylidene-a-benzenesulphonylmethyl-isocyanide]
MIC (Pasteurella multocida; Pasteurella multocida): 3 µg/mL (≈ 11.5 µM)
MIC ([1]; Streptococcus): 25 µg/mL (≈ 95.7 µM)
MIC (Trichophyton equinum; [4]): 6 µg/mL (≈ 23 µM)
MIC (Trichophyton equinum; [5]): 12.5 µg/mL (≈ 47.8 µM)
MIC (Candida albicans; [6]): 1.5 µg/mL (≈ 5.74 µM)
MIC (Candida albicans; [7]): 1.5 µg/mL (≈ 5.74 µM)
MIC (Candida albicans; [8]): 1.5 µg/mL (≈ 5.74 µM)
MIC (Candida albicans; [9]): 1.5 µg/mL (≈ 5.74 µM)
MIC (Candida albicans; [10]): 1.5 µg/mL (≈ 5.74 µM)
MIC (Candida albicans; [11]): 3 µg/mL (≈ 11.5 µM)
MIC (Candida albicans; [12]): 3 µg/mL (≈ 11.5 µM)
MIC (Candida albicans; [13]): 3 µg/mL (≈ 11.5 µM)
MIC (Candida albicans; [14]): 1.5 µg/mL (≈ 5.74 µM)
MIC (Candida albicans; [15]): 3 µg/mL (≈ 11.5 µM)
MIC (Candida albicans; [16]): 6 µg/mL (≈ 23 µM)
MIC (Candida albicans; [17]): 1.5 µg/mL (≈ 5.74 µM)
MIC (Candida albicans; [18]): 3 µg/mL (≈ 11.5 µM)
MIC (Candida albicans; [19]): 1.5 µg/mL (≈ 5.74 µM)
MIC (Candida albicans; [20]): 3 µg/mL (≈ 11.5 µM)
MIC (Candida albicans; [21]): 6 µg/mL (≈ 23 µM)
MIC (Candida albicans; [22]): 1.5 µg/mL (≈ 5.74 µM)
MIC (Candida albicans; [23]): 3 µg/mL (≈ 11.5 µM)
MIC (Candida albicans; [24]): 3 µg/mL (≈ 11.5 µM)
MIC (Trichophyton rubrum; [25]): 0.4 µg/mL (≈ 1.53 µM)
MIC (Trichophyton rubrum; [26]): 6 µg/mL (≈ 23 µM)
MIC (Trichophyton rubrum; read-out: MIC values, Trichophyton rubrum A 810): 0.4 µg/mL (≈ 1.53 µM)
MIC (Trichophyton quickeaneum; Trichophyton): 3 µg/mL (≈ 11.5 µM)
MIC (Trichophyton violoceum; Trichophyton): 3 µg/mL (≈ 11.5 µM)
MIC (Trichophyton tonsurans; Trichophyton tonsurans): 0.2 µg/mL (≈ 0.765 µM)
MIC [2, 27]: 1.5 µg/mL (≈ 5.74 µM)
MIC [2, 28]: 1.5 µg/mL (≈ 5.74 µM)
MIC [2, 29]: 3 µg/mL (≈ 11.5 µM)
MIC [2, 30]: 3 µg/mL (≈ 11.5 µM)
MIC [2, 31]: 3 µg/mL (≈ 11.5 µM)
MIC [2, 32]: 3 µg/mL (≈ 11.5 µM)
MIC ([3]; Trichophyton schoenleinii): 0.8 µg/mL (≈ 3.06 µM)
